This note sets out measurements from US10202370B2, “Benzimidazole derivatives as selective proteine kinase inhibitors” (AB SCIENCE, priority 2013, dated 2019).

The test has as its target c-kit WT (Homo sapiens (Human), UniProt P10721). The experiment in a line: Proliferation assay (CellTiter-Blue) on BaF3 Kit WT cell line. The class given is cell-based. Conditions: BaF3 Kit WT cell line (murine Ba/F3 expressing Human Kit WT, with murine SCF), 48 hours. As to the method:
Procedures of C-Kit WT Inhibition Assays:
Colorimetric cell proliferation and viability assay (reagent CellTiter-Blue purchased from Promega cat N°G8081) was performed on BaF3 Kit WT cell line.
A total of 2.10^4 cells/50 μl were seeded per well of a 96-wells plate. Treatment was initiated by addition of a 2× drug solution of ½ serial dilutions ranging from 0 to 10 μM. After incubating for 48 hours at 37° C., 10 μl of a ½ dilution of CellTiter-Blue reagent was added to each well and the plates were returned to the incubator for an additional 4 hours. The fluorescence intensity from the CellTiter-Blue reagent is proportional to the number of viable cells and data were recorded (544Ex/590Em) using a POLARstar OMEGA microplate reader (BMG LabteckSarl). A background control without cells was used as a blank. The positive control of the assay corresponds to the cell proliferation obtained in the absence of drug treatment (100% proliferation). Each sample was done in triplicate. The results were expressed as a percentage of the proliferation obtained in absence of treatment. All drugs were prepared as 20 mM stock solutions in DMSO and conserved at −80° C. Drug dilutions were made fresh in medium before each experiment. A DMSO control was included in each experiment.
The cell line expressing Human Kit WT was derived from the murine IL3-dependent Ba/F3 proB lymphoid cells. Ba/F3 Kit WT cells were maintained in RPMI medium containing 10% FCS and supplemented with 250 ng/ml of recombinant murine SCF.

Sequence of c-kit WT (P10721 26-976): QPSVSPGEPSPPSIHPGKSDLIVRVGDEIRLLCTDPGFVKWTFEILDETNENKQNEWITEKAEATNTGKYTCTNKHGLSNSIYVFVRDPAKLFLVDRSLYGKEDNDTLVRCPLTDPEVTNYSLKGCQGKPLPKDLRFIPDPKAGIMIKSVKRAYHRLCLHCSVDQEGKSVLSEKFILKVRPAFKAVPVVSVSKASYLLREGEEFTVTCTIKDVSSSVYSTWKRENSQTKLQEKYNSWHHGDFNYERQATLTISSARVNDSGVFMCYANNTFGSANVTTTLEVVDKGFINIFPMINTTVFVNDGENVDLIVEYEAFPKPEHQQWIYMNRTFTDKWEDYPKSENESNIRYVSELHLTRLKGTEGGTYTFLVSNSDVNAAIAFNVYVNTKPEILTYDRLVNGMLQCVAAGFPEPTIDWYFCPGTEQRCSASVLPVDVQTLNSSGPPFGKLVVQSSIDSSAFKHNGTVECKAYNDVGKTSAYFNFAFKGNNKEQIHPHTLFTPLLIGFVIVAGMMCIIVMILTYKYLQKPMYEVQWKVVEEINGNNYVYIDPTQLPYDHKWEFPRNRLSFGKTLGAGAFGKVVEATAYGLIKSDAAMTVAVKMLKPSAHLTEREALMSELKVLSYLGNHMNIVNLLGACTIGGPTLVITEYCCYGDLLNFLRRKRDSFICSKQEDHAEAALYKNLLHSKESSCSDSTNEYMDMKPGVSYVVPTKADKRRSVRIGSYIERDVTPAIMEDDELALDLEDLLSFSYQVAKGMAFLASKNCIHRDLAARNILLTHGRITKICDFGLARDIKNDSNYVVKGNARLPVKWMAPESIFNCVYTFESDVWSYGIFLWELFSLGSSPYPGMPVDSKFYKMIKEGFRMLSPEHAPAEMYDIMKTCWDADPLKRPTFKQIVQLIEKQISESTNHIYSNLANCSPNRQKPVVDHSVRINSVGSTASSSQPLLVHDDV

With `Cc1cc2nc(-c3ccccc3C)[nH]c2cc1Nc1nc(-c2cccnc2)cs1` [Compound 001, (6-Methyl-2-o-tolyl-3H-benzoimidazol-5-yl)-(4-pyridin-3-yl-thiazol-2-yl)-amine], the IC50 fell in the range of 1000 to 10000 nM. Next, `COc1ccc(-c2nc3cc(C)c(Nc4nc(-c5cccnc5)cs4)cc3[nH]2)cc1` [Compound 002, [2-(4-Methoxy-phenyl)-6-methyl-3H-benzoimidazol-5-yl]-(4-pyridin-3-yl-thiazol-2-yl)-amine]: 1000 to 10000 nM. The result for `Cc1cc2nc(-c3ccc(CN4CCN(C)CC4)cc3)[nH]c2cc1Nc1nc(-c2cccnc2)cs1` [Compound 003, {6-Methyl-2-[4-(4-methyl-piperazin-1-ylmethyl)-phenyl]-3H-benzoimidazol-5-yl}-(4-pyridin-3-yl-thiazol-2-yl)-amine] reads not above 1000 nM. Consider `Cc1ccc(-c2nc3cc(C)c(Nc4nc(-c5cccnc5)cs4)cc3[nH]2)cc1` [Compound 004, (6-Methyl-2-p-tolyl-3H-benzoimidazol-5-yl)-(4-pyridin-3-yl-thiazol-2-yl)-amine], for which the IC50 lay within 1000 to 10000 nM. `Cc1cc2nc(-c3cccc(C(F)(F)F)c3)[nH]c2cc1Nc1nc(-c2cccnc2)cs1` [Compound 005, [6-Methyl-2-(3-trifluoromethyl-phenyl)-3H-benzoimidazol-5-yl]-(4-pyridin-3-yl-thiazol-2-yl)-amine] displayed an IC50 not above 1000 nM. Next, `Cc1cc2nc(-c3ccc(CN4CCN(C)CC4)cc3)[nH]c2cc1Nc1ncc(-c2cccnc2)o1` [Compound 006, {6-Methyl-2-[4-(4-methyl-piperazin-1-ylmethyl)-phenyl]-3H-benzoimidazol-5-yl}-(5-pyridin-3-yl-oxazol-2-yl)-amine]: 1000 to 10000 nM. Next, `Cc1cc2nc(-c3cccc(C(F)(F)F)c3)[nH]c2cc1Nc1ncc(-c2cccnc2)o1` [Compound 007, [6-Methyl-2-(3-trifluoromethyl-phenyl)-3H-benzoimidazol-5-yl]-(5-pyridin-3-yl-oxazol-2-yl)-amine]: 1000 to 10000 nM. The result for `Cc1cc2nc(-c3cccc(C(F)(F)F)c3)[nH]c2cc1Nc1nccc(-c2cccnc2)n1` [Compound 008] reads not above 1000 nM; that for `Cc1cc2nc(-c3ccc(CN4CCN(C)CC4)cc3)[nH]c2cc1Nc1nccc(-c2cccnc2)n1` [Compound 009, {6-Methyl-2-[4-(4-methyl-piperazin-1-ylmethyl)-phenyl]-3H-benzoimidazol-5-yl}-(4-pyridin-3-yl-pyrimidin-2-yl)-amine], 1000 to 10000 nM; that for `Cc1cc2nc(-c3cccc(C#N)c3)[nH]c2cc1Nc1nc(-c2cccnc2)cs1` [Compound 010, 3-[5-Methyl-6-(4-pyridin-3-yl-thiazol-2-ylamino)-1H-benzoimidazol-2-yl]-benzonitrile], not above 1000 nM. `Cc1cccc(-c2nc3cc(C)c(Nc4nc(-c5cccnc5)cs4)cc3[nH]2)c1` [Compound 011, (6-Methyl-2-m-tolyl-3H-benzoimidazol-5-yl)-(4-pyridin-3-yl-thiazol-2-yl)-amine]: the IC50 is not above 1000 nM. The result for `Cc1cccc(-c2nc3cc(C)c(Nc4nccc(-c5cccnc5)n4)cc3[nH]2)c1` [Compound 012, (6-Methyl-2-m-tolyl-3H-benzoimidazol-5-yl)-(4-pyridin-3-yl-pyrimidin-2-yl)-amine] reads 1000 to 10000 nM; that for `Cc1cc2nc(-c3cccc(C#N)c3)[nH]c2cc1Nc1nccc(-c2cccnc2)n1` [Compound 013, 3-[5-Methyl-6-(4-pyridin-3-yl-pyrimidin-2-ylamino)-1H-benzoimidazol-2-yl]-benzonitrile], 1000 to 10000 nM. The result for `Cc1cc2nc(-c3cccnc3)[nH]c2cc1Nc1nccc(-c2cccnc2)n1` [Compound 014, (6-Methyl-2-pyridin-3-yl-3H-benzoimidazol-5-yl)-(4-pyridin-3-yl-pyrimidin-2-yl)-amine] reads 1000 to 10000 nM; that for `Cc1cc2nc(-c3cccc(N4CCN(C)CC4)c3)[nH]c2cc1Nc1nccc(-c2cccnc2)n1` [Compound 015, {6-Methyl-2-[3-(4-methyl-piperazin-1-yl)-phenyl]-3H-benzoimidazol-5-yl}-(4-pyridin-3-yl-pyrimidin-2-yl)-amine], 1000 to 10000 nM; that for `Cc1cc2nc(-c3cccc(OCCN(C)C)c3)[nH]c2cc1Nc1nccc(-c2cccnc2)n1` [Compound 016, {2-[3-(2-Dimethylamino-ethoxy)-phenyl]-6-methyl-3H-benzoimidazo1-5-yl}-(4-pyridin-3-yl-pyrimidin-2-yl)-amine], 1000 to 10000 nM. Next, `Cc1cc2nc(-c3cnc4ccccc4c3)[nH]c2cc1Nc1nccc(-c2cccnc2)n1` [Compound 017, (6-Methyl-2-quinolin-3-yl-3H-benzoimidazol-5-yl)-(4-pyridin-3-yl-pyrimidin-2-yl)-amine]: 1000 to 10000 nM. Compound `Cc1cc2nc(-c3cccc(CN4CCOCC4)c3)[nH]c2cc1Nc1nccc(-c2cccnc2)n1` [Compound 018, [6-Methyl-2-(3-morpholin-4-ylmethyl-phenyl)-3H-benzoimidazol-5-yl]-(4-pyridin-3-yl-pyrimidin-2-yl)-amine] displayed an IC50 of 1000 to 10000 nM. Next, `Cc1cc2nc(-c3cccc(F)c3)[nH]c2cc1Nc1nccc(-c2cccnc2)n1` [Compound 019, [2-(3-Fluoro-phenyl)-6-methyl-3H-benzoimidazol-5-yl]-(4-pyridin-3-yl-pyrimidin-2-yl)-amine]: 1000 to 10000 nM; `Cc1cc2nc(-c3cc(CN4CCOCC4)cc(C(F)(F)F)c3)[nH]c2cc1Nc1nc(-c2cccnc2)cs1` [Compound 020, [6-Methyl-2-(3-morpholin-4-ylmethyl-5-trifluoromethyl-phenyl)-3H-benzoimidazol-5-yl]-(4-pyridin-3-yl-thiazol-2-yl)-amine]: not above 1000 nM; `Cc1cc2nc(-c3ccc(C(F)(F)F)cc3)[nH]c2cc1Nc1nc(-c2cccnc2)cs1` [Compound 021, [6-Methyl-2-(4-trifluoromethyl-phenyl)-3H-benzoimidazol-5-yl]-(4-pyridin-3-yl-thiazol-2-yl)-amine]: 1000 to 10000 nM. `Cc1cc2nc(Cc3ccccc3)[nH]c2cc1Nc1nc(-c2cccnc2)cs1` [Compound 022, (2-Benzyl-6-methyl-3H-benzoimidazol-5-yl)-(4-pyridin-3-yl-thiazol-2-yl)-amine] yielded a 50% inhibitory concentration (IC50) of 1000 to 10000 nM. Next, `Cc1cc2nc(-c3cc(CN4CCCC4)cc(C(F)(F)F)c3)[nH]c2cc1Nc1nc(-c2cccnc2)cs1` [Compound 023, [6-Methyl-2-(3-pyrrolidin-1-ylmethyl-5-trifluoromethyl-phenyl)-3H-benzoimidazol-5-yl]-(4-pyridin-3-yl-thiazol-2-yl)-amine]: 1000 to 10000 nM. Next, `Cc1cc2nc(-c3cc(CN4CCCCC4)cc(C(F)(F)F)c3)[nH]c2cc1Nc1nc(-c2cccnc2)cs1` [Compound 024, [6-Methyl-2-(3-piperidin-1-ylmethyl-5-trifluoromethyl-phenyl)-3H-benzoimidazol-5-yl]-(4-pyridin-3-yl-thiazol-2-yl)-amine]: not above 1000 nM; `Cc1cc2nc(-c3cccc(C(F)F)c3)[nH]c2cc1Nc1nc(-c2cccnc2)cs1` [Compound 025, [2-(3-Difluoromethyl-phenyl)-6-methyl-3H-benzoimidazol-5-yl]-(4-pyridin-3-yl-thiazol-2-yl)-amine]: not above 1000 nM.

Regarding `Cc1cc2nc(-c3cccc(OC(F)(F)F)c3)[nH]c2cc1Nc1nc(-c2cccnc2)cs1` [Compound 026], the IC50 is not above 1000 nM. The result for `Cc1cc2nc(-c3ccc(C(F)(F)F)cc3)[nH]c2cc1Nc1nccc(-c2cccnc2)n1` [Compound 027, [6-Methyl-2-(4-trifluoromethyl-phenyl)-3H-benzoimidazol-5-yl]-(4-pyridin-3-yl-pyrimidin-2-yl)-amine] reads 1000 to 10000 nM; that for `Cc1cc2nc(-c3cc(CN4CCOCC4)cc(C(F)(F)F)c3)[nH]c2cc1Nc1nccc(-c2cccnc2)n1` [Compound 028], not above 1000 nM; that for `Cc1cc2nc(-c3cc(CN4CCCC4)cc(C(F)(F)F)c3)[nH]c2cc1Nc1nccc(-c2cccnc2)n1` [Compound 029, [6-Methyl-2-(3-pyrrolidin-1-ylmethyl-5-trifluoromethyl-phenyl)-3H-benzoimidazol-5-yl]-(4-pyridin-3-yl-pyrimidin-2-yl)-amine], not above 1000 nM. Next, `Cc1cc2nc(-c3cccc(C(F)F)c3)[nH]c2cc1Nc1nccc(-c2cccnc2)n1` [Compound 030, [2-(3-Difluoromethyl-phenyl)-6-methyl-3H-benzoimidazol-5-yl]-(4-pyridin-3-yl-pyrimidin-2-yl)-amine]: not above 1000 nM; `Cc1cc2nc(-c3cccc(Cl)c3)[nH]c2cc1Nc1nccc(-c2cccnc2)n1` [Compound 031, [2-(3-Chloro-phenyl)-6-methyl-3H-benzoimidazol-5-yl]-(4-pyridin-3-yl-pyrimidin-2-yl)-amine]: not above 1000 nM. Next, `Cc1cc2nc(-c3cccc(Cl)c3)[nH]c2cc1Nc1nc(-c2cccnc2)cs1` [Compound 032, [2-(3-Chloro-phenyl)-6-methyl-3H-benzoimidazol-5-yl]-(4-pyridin-3-yl-thiazol-2-yl)-amine]: not above 1000 nM.

For orientation: IC50 means the concentration needed to halve the response being measured. Lower therefore signals greater potency in that assay.
